Results reported in US12495798B2, “Nicotinamide compound and herbicidal composition comprising compound” (KOREA RESEARCH INSTITUTE OF CHEMICAL TECHNOLOGY, priority 2019, dated 2025).

Experiments:
Assay type in all cases: in vivo
bindweed = assay: Herbicidal activity test against upland field weeds (foliar treatment test); design: key to Foliar treatment herbicidal activity, Bindweed: 0 (no control); 100 (complete control); details: 50 g ai/ha, scale 0-100
Outline: (§1)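 Visual 0–100 control ratings relative to untreated plants, taken 14 (or 21) days after spraying foliage at 50 or 75 g a.i./ha. Spray solution: 50% acetone with 0.1% Tween-20; plants kept in greenhouse at 30±5 °C, 14 h light/10 h dark.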

soybean = assay: Phytotoxicity test for upland field crops (foliar treatment test); design: key: 0 (no harm); 9 (complete withered)
Outline: (§2)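 Spray-booth foliar treatment of greenhouse-grown crops at 19˜300 g a.i./ha. Visual crop injury was scored 0–9 against untreated plants at 7 and 14 days.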

cotton = assay: as above; design: key: 0 (no harm); 9 (complete withered)
Outline: as §2

rice = assay: as above; design: key: 0 (no harm); 9 (complete withered)
Outline: as §2

wheat = assay: as above; design: key: 0 (no harm); 9 (complete withered)
Outline: as §2

corn = assay: as above; design: key: 0 (no harm); 9 (complete withered)
Outline: as §2

fall panicum = assay: Herbicidal activity test against upland field weeds (foliar treatment test); details: 50 g ai/ha, scale 0-100
Outline: as §1

barnyard grass = assay: as above; details: 50 g ai/ha, scale 0-100
Outline: as §1

quack grass = assay: as above; design: key to Foliar treatment herbicidal activity, quack grass: 0 (no control); 100 (complete control); details: 50 g ai/ha, scale 0-100
Outline: as §1

indian jointvetch = assay: Herbicidal activity test against upland field weeds (soil treatment test); design: key to Soil treatment herbicidal activity, Indian jointvetch: 0 (no control); 100 (complete control); details: 50 g ai/ha, scale 0 (no control) to 100 (complete control)
Outline: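 Weed control scored visually on a 0 (none) to 100 (complete) scale versus untreated pots at 14 or 21 days in greenhouse (30±5 °C, 14 h light). Test compounds, 50 or 75 g a.i./ha in 50% acetone/0.1% Tween-20, hand-sprayed onto soil one day post-sowing.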

[1] = 50 g ai/ha, Soybean (7 days after treatment)
[2] = 50 g ai/ha, Soybean (14 days after treatment)
[3] = 100 g ai/ha, Soybean (7 days after treatment)
[4] = 100 g ai/ha, Soybean (14 days after treatment)
[5] = 50 g ai/ha, Cotton (7 days after treatment)
[6] = 50 g ai/ha, Cotton (14 days after treatment)
[7] = 100 g ai/ha, Cotton (7 days after treatment)
[8] = 100 g ai/ha, Cotton (14 days after treatment)
[9] = 50 g ai/ha, Rice (7 days after treatment)
[10] = 50 g ai/ha, Rice (14 days after treatment)
[11] = 100 g ai/ha, Rice (7 days after treatment)
[12] = 100 g ai/ha, Rice (14 days after treatment)
[13] = 50 g ai/ha, Wheat (7 days after treatment)
[14] = 50 g ai/ha, Wheat (14 days after treatment)
[15] = 100 g ai/ha, Wheat (7 days after treatment)
[16] = 100 g ai/ha, Wheat (14 days after treatment)
[17] = 50 g ai/ha, Corn (7 days after treatment)
[18] = 50 g ai/ha, Corn (14 days after treatment)
[19] = 100 g ai/ha, Corn (7 days after treatment)
[20] = 100 g ai/ha, Corn (14 days after treatment)

Row | SMILES | Foliar treatment phytotoxicity, Soybean (soybean; [1]) | Foliar treatment phytotoxicity, Soybean (soybean; [2]) | Foliar treatment phytotoxicity, Soybean (soybean; [3]) | Foliar treatment phytotoxicity, Soybean (soybean; [4]) | Foliar treatment phytotoxicity, Cotton (cotton; [5]) | Foliar treatment phytotoxicity, Cotton (cotton; [6]) | Foliar treatment phytotoxicity, Cotton (cotton; [7]) | Foliar treatment phytotoxicity, Cotton (cotton; [8]) | Foliar treatment phytotoxicity, Rice (rice; [9]) | Foliar treatment phytotoxicity, Rice (rice; [10]) | Foliar treatment phytotoxicity, Rice (rice; [11]) | Foliar treatment phytotoxicity, Rice (rice; [12]) | Foliar treatment phytotoxicity, Wheat (wheat; [13]) | Foliar treatment phytotoxicity, Wheat (wheat; [14]) | Foliar treatment phytotoxicity, Wheat (wheat; [15]) | Foliar treatment phytotoxicity, Wheat (wheat; [16]) | Foliar treatment phytotoxicity, Corn (corn; [17]) | Foliar treatment phytotoxicity, Corn (corn; [18]) | Foliar treatment phytotoxicity, Corn (corn; [19]) | Foliar treatment phytotoxicity, Corn (corn; [20]) | other results
1 | Cn1nc(COCc2nc(C(F)(F)F)ccc2C(=O)Nc2nnnn2C)nc1Cl [Compound No. 2-135, 2-(((5-chloro-1-methyl-1H-1,2,4-triazol-3-yl)methoxy)methyl)-N-(1-methyl-1H-tetrazol-5-yl)-6-(trifluoromethyl)nicotinamide] | 4 | 6 | 4 | 7 | 3 | 7 | 3 | 7 | 3 | 6 | 4 | 6 | 0 | 0 | 0 | 0 | 0 | 0 | 0 | 0 | pest or weed control at 50 g/ha (bindweed): 70%; pest or weed control at 50 g/ha (fall panicum; Panicum dichotomiflorum): 50%; pest or weed control at 50 g/ha (barnyard grass; Echinochloa crus-galli): 98%; Foliar treatment herbicidal activity, quack grass (quack grass): 0; Soil treatment herbicidal activity, Indian jointvetch (indian jointvetch): 0
2 | CCOC(=O)OC(C)N(C(=O)c1ccc(C(F)(F)F)nc1COCc1nnn(C)n1)c1nnnn1C (centres unmarked) [Compound No. 4-8, ethyl(1-(N-(1-methyl-1H-tetrazol-5-yl)-2-(((2-methyl-2H-tetrazol-5-yl)methoxy)methyl)-6-(trifluoromethyl)nicotinamido)ethyl)carbonate] | 0 | 0 | 0 | 0 | 0 | 0 | 0 | 0 | 0 | 0 | 0 | 0 | 2 | 1 | 2 | 2 | 0 | 0 | 0 | 0 | Foliar treatment herbicidal activity, Bindweed (bindweed): 100; Foliar treatment herbicidal activity, Fall panicum (fall panicum): 80; Foliar treatment herbicidal activity, barnyard grass (barnyard grass): 98; Foliar treatment herbicidal activity, quack grass (quack grass): 0; Soil treatment herbicidal activity, Indian jointvetch (indian jointvetch): 100
